Results reported in paper PMC9738727, “Purification and Characterization of Novel Anti-MRSA Peptides Produced by Brevibacillus sp. SPR-20” (Molecules, 2022).
Values after ≈ are worked out from the molar mass of the structure shown. Values joined by “and” are separate entries in the source; they are usually repeats but may differ in a detail not shown here. Identical values can stand only once. Like-named read-outs stand apart in the source and are kept apart here. Ends that are not written are not given here.

Assays:
[1] = cited from earlier work
Description: With the highest activity, P1 was selected for further study on its stability and mechanism of action. P1 was thermostable as it maintained nearly all activity after exposure to 100 °C or autoclave conditions. The short-chain peptide with substantial β-strand and disordered structures was an important characteristic of P1. This peptide might be refolded to active conformation after heat treatment that conferred good thermal stability. Similarly, acidocin LCHV (11 residues) produced by Lactobacillus acidophilus n.v. Er 317/402 Narine was stable at 130 °C for 90 min [27]. […] The enzymatic stability of P1 was caused by the absence of aromatic amino acids, which are the specific cleavage sites of proteinase K and α-chymotrypsin. The presence of one lysine at the core sequence of P1 might lessen the sensitivity of trypsin [29].

MRSA isolate 142 = assay: microbe, parasite or virus in culture; format: cell-based, Staphylococcus aureus
Description: (§1) The MIC and MBC of the purified peptides from SPR-20 were determined by broth microdilution assay following a standard guideline. S. aureus TISTR 517 and MRSA isolate 142, 1096, and 2468 as bacterial strains were cultured in MH agar at 37 °C for 18 h. […] The cells were then diluted to 5 × 10^6 CFU/mL using cation-adjusted Mueller Hinton broth (CAMHB). The diluted cell suspension (10 μL) was transferred to each well of a 96-well plate. The purified peptide in the total volume of 100 µL was added to each well to obtain the final concentrations between 0.5 and 64 µg/mL. The standard antibiotics (vancomycin and cefoxitin) (Sigma-Aldrich Co., St. Louis, MO, USA) and antibiotic-free samples were the positive and negative controls, respectively. CAMHB without tested bacteria was used as a blank. The 96-well plates were incubated at 37 °C for 24 h, and the experiment was performed in triplicate for each strain. […] Subsequently, 100 µL of each dilution was spread on MH agar and then incubated at 37 °C for 24 h.

S. aureus TISTR 517 [2] = assay: microbe, parasite or virus in culture; format: cell-based, Staphylococcus aureus
Description: as §1

MRSA isolate 2468 [3] = assay: microbe, parasite or virus in culture; format: cell-based, Staphylococcus aureus
Description: as §1

MRSA isolate 1096 = assay: microbe, parasite or virus in culture; format: cell-based, Staphylococcus aureus
Description: as §1

[4] = test system: S. aureus TISTR 517 and MRSA strains; assay: microbe, parasite or virus in culture; format: cell-based, Staphylococcus aureus; settings: Staphylococcus aureus
Description: as §1

S. aureus TISTR 517 [5] = assay: microbe, parasite or virus in culture; format: cell-based, Staphylococcus aureus; settings: Staphylococcus aureus, TISTR517, 18 h, read-out: Corrected Zone of Inhibition
Description: (§2) The antimicrobial activity was measured by an agar well diffusion test with some modified methods. In brief, single colonies of the tested strains were suspended in 0.85% NaCl, and then the OD at 625 nm was adjusted to 0.1. The cell suspensions were spread on MH agar, and the tested samples (100 μL) were introduced into each well before incubation at 37 °C for 24 h. Each experiment was performed in three independent replicates, and the inhibition zone was measured and expressed as mean ± SD.
(§3) The agar well diffusion test was performed in triplicate for potency determination, using S. aureus TISTR 517 and MRSA isolate 2468 as the tested bacteria. […] The remaining standard and sample solutions were transferred to the other 3 wells. The plates were incubated at 37 °C for 18 h.

MRSA isolate 2468 [6] = assay: microbe, parasite or virus in culture; format: cell-based, Staphylococcus aureus; settings: Staphylococcus aureus, 18 h, read-out: Corrected Zone of Inhibition
Description: as §2, §3

[7] = Staphylococcus aureus, broth microdilution, CAMHB, 37 °C, 24 h, triplicate, read-out: MIC
[8] = Staphylococcus aureus, TISTR517, 24 h

Compound | MBC (MRSA isolate 142; isolate 142, 24 h) [µg/mL] | MIC (MRSA isolate 142; isolate 142, 24 h) [µg/mL] | MBC (S. aureus TISTR 517 [2]; TISTR 517, 24 h) [µg/mL] | MIC (S. aureus TISTR 517 [2]; TISTR 517, 24 h) [µg/mL] | MBC (MRSA isolate 2468 [3]; isolate 2468, 24 h) [µg/mL] | MIC (MRSA isolate 2468 [3]; isolate 2468, 24 h) [µg/mL] | MBC (MRSA isolate 1096; isolate 1096, 24 h) [µg/mL] | MIC (MRSA isolate 1096; isolate 1096, 24 h) [µg/mL] | other results
XVXVVVKVLKYLX [Brevilaterin V, antimicrobial peptide from Brevibacillus laterosporus S62-9] |  |  |  |  |  |  |  |  | initial activity retained after heating ([1]; 100 °C for 2 h): 99%; remaining activity with pepsin, trypsin, and proteinase K [1]: more than 97%
VVLNLLVKVLKYGK [Peptide P3] | 8 | 4 | 4 | 4 | 8 | 4 | 8 | 4 | 
CO[C@@]1(NC(=O)Cc2cccs2)C(=O)N2C(C(=O)O)=C(COC(N)=O)CS[C@@H]21 [Cefoxitin, cefoxitin, reference compound] |  |  |  |  |  |  |  |  | MIC (MRSA isolate 142; [7]): > 64 µg/mL; MIC (S. aureus TISTR 517 [2]; Staphylococcus aureus, TISTR517, broth microdilution, CAMHB, 37 °C, 24 h, triplicate, read-out: MIC): 2 µg/mL (≈ 4.68 µM); MBC (S. aureus TISTR 517 [2]; Staphylococcus aureus, TISTR517, dilutions spread on MH agar, 37 °C, 24 h, no colony, read-out: MBC): 2 µg/mL (≈ 4.68 µM); MIC (S. aureus TISTR 517 [2]; broth microdilution, CAMHB, 37 °C, 24 h, triplicate): 2 µg/mL (≈ 4.68 µM); MIC (MRSA isolate 2468 [3]; [7]): > 64 µg/mL; MIC (MRSA isolate 1096; [7]): > 64 µg/mL; MIC ([4]; MRSA strains only, read-out: MIC): > 64 µg/mL
NVGVLNPPPLV [Acidocin LCHV, antimicrobial peptide produced by Lactobacillus acidophilus n.v; Er 317/402 Narine] |  |  |  |  |  |  |  |  | thermal stability ([1]; 130 °C for 90 min): stable; effect of trypsin, pepsin, and proteinase K on activity ([1]; according to a previous study): decreased the activity
CN[C@H](CC(C)C)C(=O)N[C@H]1C(=O)N[C@@H](CC(N)=O)C(=O)N[C@H]2C(=O)N[C@H]3C(=O)N[C@H](C(=O)N[C@H](C(=O)O)c4cc(O)cc(O)c4-c4cc3ccc4O)[C@H](O)c3ccc(c(Cl)c3)Oc3cc2cc(c3O[C@@H]2O[C@H](CO)[C@@H](O)[C@H](O)[C@H]2O[C@H]2C[C@](C)(N)[C@H](O)[C@H](C)O2)Oc2ccc(cc2Cl)[C@H]1O [Vancomycin, vancomycin] |  |  |  |  |  |  |  |  | MBC (MRSA isolate 142; Staphylococcus aureus, 24 h): 2 µg/mL (≈ 1.38 µM); MIC (MRSA isolate 142; Staphylococcus aureus, 24 h): 2 µg/mL (≈ 1.38 µM); MBC (S. aureus TISTR 517 [2]; [8]): 2 µg/mL (≈ 1.38 µM); MIC (S. aureus TISTR 517 [2]; [8]): 2 µg/mL (≈ 1.38 µM); MBC (MRSA isolate 2468 [3]; Staphylococcus aureus, 24 h): 2 µg/mL (≈ 1.38 µM); MIC (MRSA isolate 2468 [3]; Staphylococcus aureus, 24 h): 2 µg/mL (≈ 1.38 µM); MBC (MRSA isolate 1096; Staphylococcus aureus, 24 h): 2 µg/mL (≈ 1.38 µM); MIC (MRSA isolate 1096; Staphylococcus aureus, 24 h): 2 µg/mL (≈ 1.38 µM); MIC [4]: 2 µg/mL and 1.38 µM; zone of inhibition at 50 µg/mL (S. aureus TISTR 517 [5]): 18.8 ± 0.61 mm; zone of inhibition at 75 µg/mL (S. aureus TISTR 517 [5]): 19.5 ± 0.52 mm; zone of inhibition at 100 µg/mL (S. aureus TISTR 517 [5]): 20.3 ± 0.41 mm; zone of inhibition at 125 µg/mL (S. aureus TISTR 517 [5]): 21.1 ± 0.41 mm; zone of inhibition at 150 µg/mL (S. aureus TISTR 517 [5]): 21.3 ± 0.36 mm; zone of inhibition at 50 µg/mL (MRSA isolate 2468 [6]): 20.1 ± 0.29 mm; zone of inhibition at 75 µg/mL (MRSA isolate 2468 [6]): 21.2 ± 0.76 mm; zone of inhibition at 100 µg/mL (MRSA isolate 2468 [6]): 22 ± 0.57 mm; zone of inhibition at 125 µg/mL (MRSA isolate 2468 [6]): 22.7 ± 0.61 mm; zone of inhibition at 150 µg/mL (MRSA isolate 2468 [6]): 23.36 ± 0.21 mm
VVLNLVVKLLKYAK [Peptide P5] | 32 | 32 | 32 | 32 | 32 | 32 | 32 | 32 | 
VVVNLLVKVLKYAK [Peptide P4] | 16 | 8 | 8 | 8 | 16 | 8 | 16 | 8 | 
VVMNLLVKVLKYVV [Peptide P2] | 64 | 8 | 16 | 8 | 64 | 8 | 64 | 8 | 
